Experiments:
[1] = molecular target: T1, MiGSTU (Mangifera indica glutathione S-transferase Tau class) (Mangifera indica, UniProt A0A1P8NWC2); assay: steady-state enzyme kinetics of the purified enzyme; assay type: biochemical; conditions: read-out: CDNB / Km
T1 sequence (A0A1P8NWC2 1-229): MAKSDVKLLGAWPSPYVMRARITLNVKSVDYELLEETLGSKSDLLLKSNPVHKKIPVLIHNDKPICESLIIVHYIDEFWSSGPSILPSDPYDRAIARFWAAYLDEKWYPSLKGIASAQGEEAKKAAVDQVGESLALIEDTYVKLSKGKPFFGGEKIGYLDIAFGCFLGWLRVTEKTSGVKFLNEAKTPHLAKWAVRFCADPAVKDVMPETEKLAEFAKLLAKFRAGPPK

[2] = molecular target: Mangifera indica glutathione S-transferase Tau class (MiGSTU) (mango (Mangifera indica)); assay: SEC

stoichiometry N [2] | Compound | Km [1] [µM]
 | O=[N+]([O-])c1ccc(Cl)c([N+](=O)[O-])c1 [CDNB] | 792
2 | Mangifera indica glutathione S-transferase Tau class (MiGSTU) (enzyme) | 

— paper PMC5346462 (Biochimie, 2017)
